Data from EP4140481A1, “PROTEIN-OLIGOMER BINDING AGENTS AND THERAPEUTIC USES THEREOF” (Galyan Bio, Inc., priority 2021, dated 2023).

Key:
[1] = molecular target: T1, Wild type (wt) α-Synuclein (Homo sapiens, UniProt P37840); assay: Dynamic Light Scattering (DLS), induced aggregation; assay type: biochemical
T1 construct: purchased rPeptide, Watkinsville, Georgia S-1001-2
Method: In order to induce the formation of smaller oligomers of the α-Synuclein protein it was hypothised that using DMSO as a solvent induces oligomer formation Kostka et al., THE JOURNAL OF BIOLOGICAL […] VOL. 283, NO. 16, pp. 10992-11003, April 18, 2008). In order to assess the ability of certain compounds to induce formation of aggregates from protein-oligomers, the following experiments were conducted.
Proteins were ultracentrifuged with 50,000 rpm (rounds per minute) for one hour at 2 °C. The supernatant was used for DLS measurements. DLS measurements were conducted with Malvern Zetasizer Nano (Malvern Panalytical Ltd, United Kingdom).
Wild type (wt) α-Synuclein (catalog S-1001-2, rPeptide, Watkinsville, Georgia) was solved in 20 mM phosphate, pH 7.4 buffer.
As mentioned, it was described that 1% DMSO was used to induce α-Synuclein to form small oligomers (Kostka et al., THE JOURNAL OF BIOLOGICAL […] VOL. 283, NO. 16, pp. 10992-11003, April 18, 2008). 1% DMSO (Sigma) was used to trigger small oligomer formation of wt α-Synuclein. 1% DMSO was added to wt α-Synuclein to measure the effect of DMSO alone on wt α-Synuclein. With DLS there is no volume difference detectable between wt α-Synuclein with and without 1% DMSO (Figure 44). […] 1% DMSO induces the formation of small oligomers, which interact with Compound 4 and form larger aggregates of the oligomers.

[2] = test system: CREB-binding protein (CBP) colocalization with mHTT; assay: Co-localization of CREB-binding protein (CBP) with mHTT; assay type: in vivo, R6/2 mice; conditions: treated animals of the R6/2 study versus untreated TG mice; p = 0.02
Source text: Staining - Goat anti-Rabbit IgG (H+L) Alexa Fluor 647 (1:500, ThermoFisher Invitrogen) was used as a secondary antibody for binding to CBP antibody. DAPI (Sigma-Aldrich) was used to identify the nuclei. Goat anti-Mouse IgG (H+L), Alexa Fluor 488 (1:500, A-11034, ThermoFisher Invitrogen) was used as a secondary antibody for binding to EM48 antibody. Mouse anti-human-mHTT (EM48, 1:500, Sigma-Aldrich), was used to stain huntingtin. Rabbit anti-CBP (1:100, Sigma-Aldrich) was used a primary antibody to stain CBP.
The blocking buffer was freshly prepared and consisted of PBS (Sigma-Aldrich) with 5% normal goat serum (NGS), 0.2% BSA, 0.2% lysine and 0.2% glycine. […] On day six, samples were washed and then incubated with DAPI containing mounting medium Fluoroshield (Sigma-Aldrich), in order to counterstain the nuclei and preserve the fluorescence. […]
CBP colocalization with mHTT and quantitative assessment of the images were measured (Lee, J. et al., Acta Neuropathol. 2017 Nov;[…]:729-748; Steffan, J.S. et al., Nature. 2001 Oct 18;413(6857):739-743; Nucifora, F.C. et al., Science. 2001 Mar 23;291(5512):2423-2428). In brief, regions of interest (colocalized areas) in multi-channel images from two or three of the overlapping fluorescence dyes were selected using the Plugin CoLoc2 of FIJI. The colocalization score of identified areas was calculated. […]

[3] = by volume, 70 µM equimolar Compound 4 solved in methanol
[4] = by volume, equimolar Compound 4 solved in DMSO (1% DMSO)

SMILES	aggregation of wt α-Synuclein ([1]; Compound 4 solved in DMSO)	% Volume, Peak 2 [1, 3] [%]	% Volume, Peak 3 [1, 3] [%]	Size, Peak 1 [1, 3] [nm]	Size, Peak 2 [1, 3] [nm]	Size, Peak 3 [1, 3] [nm]	% Volume, Peak 1 [1, 4] [%]	% Volume, Peak 2 [1, 4] [%]	Size, Peak 1 [1, 4] [nm]	Size, Peak 2 [1, 4] [nm]	reduction of CBP colocalization with mHTT [2] [fold]
CCc1c(C)[nH]c2ccc(C(=O)NCCN(CC)CC)cc12 [Compound 4, N-(2-(diethylamino)ethyl)-3-ethyl-2-methyl-1H-indole-5-carboxamide]	forms aggregates	0.3	0.3	6.139	80.87	338.7	96.2	3.8	144.0	4794	–
Cc1[nH]c2ccc(C(=O)NCCN(C(C)C)C(C)C)cc2c1C [Compound 22]	–	–	–	–	–	–	–	–	–	–	4
